Source: US11833162B2, “Macrocyclic derivatives, process for preparing same and pharmaceutical compositions containing same” (LES LABORATOIRES SERVIER, priority 2017, dated 2023)

Legend:
[1] = system: RS4; 11 leukaemia tumour line; assay: In vitro cytotoxicity, Microculture Tetrazolium Assay (MTT); type: cell-based; conditions: Homo sapiens, RS4-11, 48 h, 11 cells, 48 hours exposure
Method: The cytotoxicity studies were carried out on the RS4; 11 leukaemia tumour line.
The cells are distributed onto microplates and exposed to the test compounds for 48 hours.
The cell viability is then quantified by a colorimetric assay, the Microculture Tetrazolium Assay (Cancer Res., 1987, 47, 939-942).

[2] = system: cleaved (activated) form of caspase 3 in RS4; 11 tumour lysates; assay: Quantification of the cleaved form of caspase 3 in vivo (MSD ELISA) in RS4; 11 xenograft; parameters: species or system mice (SCID strain); key: ratio of cleaved caspase 3, treated vs control mice; conditions: oral, 2 hours' treatment
Method: The ability of the compounds of the invention to activate caspase 3 is evaluated in a xenograft model of RS4; 11 leukaemia cells. 1×10^7 RS4; 11 cells are grafted sub-cutaneously into immunosuppressed mice (SCID strain). 25 to 30 days after the graft, the animals are treated orally with the various compounds. After 2 hours' treatment, the tumour masses are recovered and lysed, and the cleaved (activated) form of caspase 3 is quantified in the tumour lysates. This quantification is carried out using the “Meso Scale Discovery (MSD) ELISA platform” test, which specifically assays the cleaved form of caspase 3. It is expressed in the form of an activation factor corresponding to the ratio between the quantity of cleaved caspase 3 in the treated mice divided by the quantity of cleaved caspase 3 in the control mice.

[3] = biological target: Bcl-2 protein (histag-Bcl-2, UniProtKB P10415) (Homo sapiens, UniProt P10415); assay: Inhibition of Bcl-2 by the fluorescence polarisation technique; type: binding; conditions: for IC50: fluorescence polarisation, 2 hours incubation, read-out: IC50 (μM) Bcl-2 FP
Bcl-2 protein, sequence (P10415 whole entry): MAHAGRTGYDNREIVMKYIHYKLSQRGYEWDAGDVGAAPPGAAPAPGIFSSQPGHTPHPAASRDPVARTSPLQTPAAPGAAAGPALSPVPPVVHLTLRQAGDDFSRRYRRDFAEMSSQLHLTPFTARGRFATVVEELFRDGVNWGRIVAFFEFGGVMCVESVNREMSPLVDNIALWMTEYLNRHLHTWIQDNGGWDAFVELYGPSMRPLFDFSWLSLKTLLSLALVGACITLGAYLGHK
Method: The fluorescence polarisation tests were carried out on microplates (384 wells). The Bcl-2 protein, labelled (histag-Bcl-2 such that Bcl-2 corresponds to the UniProtKB® primary accession number: P10415), at a final concentration of 5×10^−9M, is mixed with a fluorescent peptide (Fluorescein-REIGAQLRRMADDLNAQY), at a final concentration of 1.00×10^−9M in a buffer solution (Hepes 10 mM, NaCl 150 mM, Tween20 0.05%, pH 7.4), in the presence or absence of increasing concentrations of test compounds. After incubation for 2 hours, the fluorescence polarisation is measured.

Row | Compound | IC50 [1] [nM] | Activation factor ± SEM (versus control) ([2]; 25 mg/kg, PEG/EtOH/Water) | IC50 [3] [µM] | also measured
1 | Cc1c2cc(n1C)-c1cc(Cl)ccc1C(=O)N1CCc3c(cccc3OCCCc3c(cnn3C)N(c3ccc(O)cc3)C2=O)C1 [Example 6, 11-Chloro-4-(4-hydroxyphenyl)-1,7,8-trimethyl-4,16,17,23,24,25-hexahydro-1H,14H-15,18-methano-6,9-(metheno)dibenzo[b,h]pyrazolo[4,3-p]-[1,6,11,15]oxatriazacycloicosine-5,14(8H)-dione] | 26.6 | 32.3 ± 9.1 | 0.0052 | Activation factor ± SEM (versus control) ([2]; 12.5 mg/kg, PEG/EtOH/Watcr): 6.8 ± 4.2
2 | Cc1c2cc(n1C)-c1cc(Cl)ccc1C(=O)N1CCc3c(cccc3OCCc3c(cnn3C)N(c3ccc(O)cc3)C2=O)C1 [Example 16, 11-chloro-4-(4-hydroxyphenyl)-1,7,8-trimethyl-1,4,16,17,23,24-hexahydro-14H-15,18-methano-6,9-(metheno)dibenzo[l,r]pyrazolo[3,4-d][1,6,10,15]oxatriaza-cyclononadecine-5,14(8H)-dione] | 53.3 | 31.7 ± 2.9 | 0.00555 | Activation factor ± SEM (versus control) ([2]; 50 mg/kg, PEG/EtOH/Water): 75.1 ± 13.2
3 | Cc1c2cc(n1C)-c1cc(Cl)ccc1C(=O)N1CCc3c(cccc3OCCCc3c(cc(C#N)n3C)N(c3ccc(O)cc3)C2=O)C1 [Example 18, 11-Chloro-4-(4-hydroxyphenyl)-1,7,8-trimethyl-5,14-dioxo-4,5,8,16,17,23,24,25-octahydro-1H,14H-15,18-methano-6,9-(metheno)dibenzo[b,h]-pyrrolo[3,2-p][1,6,11,15]oxatriazacycloicosine-2-carbonitrile] | 8.36 |  | 0.00365 | Activation factor ± SEM (versus control) ([2]; 6.25 mg/kg, PEG/EtOH/Phosal): 7.8 ± 2.5; Activation factor ± SEM (versus control) ([2]; 12.5 mg/kg, PEG/EtOH/Phosal): 31.7 ± 6.0
4 | Cc1c(N2C(=O)c3cc(n(C)c3C)-c3cc(Cl)ccc3C(=O)N3CCCC(CCOc4cc(O)ccc42)C3)cc(C#N)n1C (stereo not shown) [Example 29, 4-[16-Chloro-3-hydroxy-19,20-dimethyl-13,22-dioxo-6,7,8,9,10,11,19,22-octahydro-13H,23H-8,12-methano-21,18-(metheno)dibenzo[b,j][1,4,8,13]oxatriazacyclo-nonadecin-23-yl]-1,5-dimethyl-1H-pyrrole-2-carbonitrile] | 70.5 |  |  | Activation factor ± SEM (versus control) ([2]; 25 mg/kg, PEG/EtOH/Phosal): 13.3 ± 6.3; Activation factor ± SEM (versus control) ([2]; 50 mg/kg, PEG/EtOH/Phosal): 54.4 ± 9.7
5 | Cc1c2cc(n1C)-c1cc(Cl)ccc1C(=O)N1CCC(CC1)COCCOCCOc1ncc(cn1)N(c1ccc(O)cc1)C2=O [Example 43, 6-Chloro-14-(4-hydroxyphenyl)-10,11-dimethyl-19,22,25-trioxa-1,10,14,17,32-pentaazapentacyclo[25.2.2.2˜15,18˜. 1˜9,12˜.0˜3,8˜]tetratriaconta-3,5,7,9(34),11,15,17,32-octaene-2,13-dione] | > 1880 |  |  | Bcl-2 FP, % at given concentration ([3]; @10 μM): 34.8% @10 μM
6 | Cc1c2cc(n1C)-c1cc(Cl)ccc1C(=O)N1CCc3c(cccc3OCCN(C)CCOc3ncc(cn3)N(c3ccc(O)cc3)C2=O)C1 [Example 44, 10-Chloro-2-(4-hydroxyphenyl)-5,6,27-trimethyl-24,30-dioxa-2,6,15,27,32,35-hexaazahexacyclo[29.2.2.1˜4,7˜.1˜15,19˜.0˜8,13˜.0˜18,23˜]hepta-triaconta-1(33),4,7(37),8,10,12,18,20,22,31,34-undecaene-3,14-dione] | 35.4 |  | 0.00497 | 
